Series [1] is described as follows: Pharmacokinetic study of tetrabenazine and dihydrotetrabenazine metabolites in plasma after oral tetrabenazine 25 mg tablets. It counts as in vivo, human. The settings on record: for metabolite of tetrabenazine in humans (major/minor): after administration of tetrabenazine; for Cmax / AUC / Tmax / AUC(0-t) / AUC(0-inf) / half-life: human, plasma; for AUC: read-out: area under the curve (AUC); for Tmax: N=08, healthy adult male volunteers; for AUC(0-t): po; for Kel: unit inferred. The procedure: A pharmacokinetic study was carried out in healthy adult male volunteers under fasting conditions at a dose of single and multiple oral administration of 25 mg tablets once a day to ascertain the plasma levels of +/−α and +/−β dihydrotetrabenazine.
Table 1 summarises the pharmacokinetic data obtained following single-dose oral administration of tetrabenazine at a dose level of 25 mg (fasting, N=08).
Table 2 summarises the pharmacokinetic data obtained following multiple-dose oral administration of tetrabenazine at a dose level of 25 mg (fasting, N=07).

For series [2], the target named is Chromaffin Granule Monoamine Transporter (Bos taurus, UniProt Q27963). The following applies: racemic isomers, in vitro; cited from earlier work.
Series [3] concerns amphetamine induced locomotor activity in male CD rats. The following applies: for total distance travelled: normalised.
Description: Male CD (Charles River Laboratories, Germany) at weight range of 200-250 g (165-200 g upon arrival) were used for the experiments. Animals were housed at a standard temperature (22±1° C.) and in a light-controlled environment (lights on from 7 am to 8 pm) with ad libitum access to food and water.
The locomotor activity of the rats was tested in an open field arena. The open field test was performed during the rat light cycle and under a normal lighting evenly distributed to the test chambers. The paths of the rats were recorded by activity monitor (Med. Associates Inc.).
The rats were placed in the centre of the arena, and the path was recorded for 30 minutes. After 30 minutes of testing, vehicle or amphetamine was dosed and the rat was placed in the centre of the arena, and the path was recorded for 60 minutes, the total testing time being 90 minutes.
[4] abbreviates: oral, 25 mg, single dose study, tetrabenazine to adult male humans.
[5] abbreviates: single-dose oral tetrabenazine 25 mg, fasting.
Setting [6] is: male, 25 mg, multiple-dose oral tetrabenazine 25 mg once a day, fasting, N=07.
Where [7] appears, read: male, 25 mg, single-dose oral tetrabenazine 25 mg, fasting, N=08.
The mark [8] stands for this setting: male, single-dose oral tetrabenazine 25 mg, fasting, N=08.
Where [9] appears, read: multiple-dose oral tetrabenazine 25 mg once a day, fasting, N=07.
Where [10] appears, read: single-dose oral tetrabenazine 25 mg, fasting, N=08.
Where [11] appears, read: Study 4, 1 mg/kg, compared to vehicle-amphetamine group.
Setting [12] is: Study 6, each isomer 1 mg/kg, risperidone 1 mg/kg, compared to vehicle-amphetamine group, unnormalised.

Entries after “also recorded” stand apart in the source; their conditions may differ. Where two headings read alike, the source gives them in different places.

Chromaffin Granule Monoamine Transporter, sequence (Q27963 whole entry): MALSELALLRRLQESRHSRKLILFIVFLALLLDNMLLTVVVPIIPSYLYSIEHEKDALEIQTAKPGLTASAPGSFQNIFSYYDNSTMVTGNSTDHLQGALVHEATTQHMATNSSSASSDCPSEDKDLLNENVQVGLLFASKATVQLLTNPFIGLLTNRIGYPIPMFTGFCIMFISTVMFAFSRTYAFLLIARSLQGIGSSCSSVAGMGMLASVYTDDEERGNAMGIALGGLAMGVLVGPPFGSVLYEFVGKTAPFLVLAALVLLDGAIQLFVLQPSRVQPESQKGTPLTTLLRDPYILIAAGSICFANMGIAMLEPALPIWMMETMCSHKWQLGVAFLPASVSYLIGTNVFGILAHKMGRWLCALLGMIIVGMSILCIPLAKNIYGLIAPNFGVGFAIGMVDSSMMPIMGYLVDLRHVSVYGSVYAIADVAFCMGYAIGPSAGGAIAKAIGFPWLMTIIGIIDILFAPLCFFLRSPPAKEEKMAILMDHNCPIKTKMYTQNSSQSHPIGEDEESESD

As to `COc1cc2c(cc1OC)[C@H]1C[C@@H](O)[C@H](CC(C)C)CN1CC2` [(+)-α-DHTBZ, (2R,3R,11bR)-3-isobutyl-9,10-dimethoxy-1,3,4,6,7,11b-hexahydro-2H-pyrido[2,1,a]isoquinolin-2-ol], in series [1], the “metabolite of tetrabenazine in humans (major/minor)” value (shortened to “metabolite … (major/minor)”) is given as “minor metabolites”. In series [1] (setting [4]), the Cmax amounted to 2.61 ng/mL and the area under the curve (AUC) came out at 0.00798 µg·h/mL. Besides, the Tmax in series [1] (setting [5]) came to 1.16 h. Also, the area under the curve AUC(0-t) in series [1] (setting [6]) was 0.0137 µg·h/mL. For the same molecule, the AUC(0-t) in series [1] (setting [7]) amounted to 0.00798 µg·h/mL. Further, in series [1] (setting [8]), the AUC(0-inf) worked out at 0.0108 µg·h/mL, the Cmax is 2.61 ng/mL and the half-life was 4.79 h. For the same molecule, in series [1] (setting [9]), the Cmaxss is 3.31 ng/mL, the Cminss was determined as 0.00 ng/mL, the Ctss amounted to 0.44 ng/mL and the “Tmaxss Mean” value is listed as 97.18 h. For the same molecule, in series [1] (setting [10]), the “Extrapolated AUC” value was 32.10% and the Kel came out at 0.17 h⁻¹.

Turning to α-dihydrotetrabenazine, the “affinity relative to the β-isomer” value in series [2] is reported as 3- to 4 fold.

As for `COc1cc2c(cc1OC)C1CC(=O)C(CC(C)C)CN1CC2` (racemic) [Tetrabenazine, 1,3,4,6,7,11b-hexahydro-9,10-dimethoxy-3-(2-methylpropyl)-2H-benzo(a)quinolizin-2-one], the time to peak (Tmax) in series [1] (setting [5]) was found to be 0.87 h. The AUC(0-t) in series [1] (setting [6]) turned out to be 0.00279 µg·h/mL. Moreover, the AUC(0-t) in series [1] (setting [7]) stood at 0.00187 µg·h/mL. For the same molecule, in series [1] (setting [8]), the AUC(0-inf) is 0.00242 µg·h/mL, the Cmax was determined as 0.58 ng/mL and the half-life was 4.35 h. In addition, in series [1] (setting [9]), the Cmaxss came to 0.73 ng/mL, the Cminss is given as 0.01 ng/mL and the “Tmaxss Mean” value was determined as 96.89 h. Further, in series [1] (setting [10]), the “Extrapolated AUC” value is 27.54% and the Kel stood at 0.19 h⁻¹.

With `Cc1nc2n(c(=O)c1CCN1CCC(c3noc4cc(F)ccc34)CC1)CCCC2` [risperidone, reference compound], the total distance travelled entry in series [3] (Study 1, 1 mg/kg, compared to vehicle-amphetamine group) is on record as “significantly different”. Further, in series [3] (setting [11]), the locomotor activity entry is “lower locomotor activity” and the stereotypic behaviour result is reported as “reduced stereotypic behaviour”. In series [3] (setting [12]), the “total distance travelled / locomotor activity” value is on record as “lower locomotor activity” and the total stereotypic behaviour result is on record as “reduced stereotypic behaviour”.

Regarding `COc1cc2c(cc1OC)[C@@H]1C[C@H](O)[C@@H](CC(C)C)CN1CC2` [(−)-α-DHTBZ, (2S,3S,11bS)-3-isobutyl-9,10-dimethoxy-1,3,4,6,7,11b-hexahydro-2H-pyrido[2,1,a]isoquinolin-2-ol], the “metabolite … (major/minor)” value in series [1] (listed as (−)-α-dihydrotetrabenazine) is “major metabolites; also recorded: main metabolites”. Moreover, in series [1] (setting [4]), the Cmax stood at 72.9 ng/mL and the exposure (AUC) amounted to 0.306 µg·h/mL. Also, in series [1] (setting [5]), the Tmax is 0.938 h. The AUC(0-t) in series [1] (setting [6]) came to 0.474 µg·h/mL. In series [1] (setting [7]), the AUC(0-t) turned out to be 0.306 µg·h/mL. Besides, in series [1] (setting [8]), the AUC(0-inf) was found to be 0.352 µg·h/mL, the Cmax amounted to 72.9 ng/mL and the half-life was 7.89 h. Also, in series [1] (setting [9]), the Cmaxss is on record as 98.34 ng/mL, the Cminss is 5.61 ng/mL, the Ctss is given as 6.10 ng/mL and the “Tmaxss Mean” value is recorded as 96.96 h. Moreover, in series [1] (setting [10]), the “Extrapolated AUC” value was 10.59% and the Kel was 0.1 h⁻¹. Moreover, in series [3] (Study 1, 2.5 mg/kg, compared to vehicle-amphetamine group), the total stereotypic behaviour result is on record as “did not lead to lower locomotor activity or reduced stereotypic behaviour”. The “total distance travelled / locomotor activity” value in series [3] (Study 1, 2.5 mg/kg, compared to vehicle-amphetamine group, listed as (−)-α-isomer, 2.5 mg/kg) is listed as “very little, if any, reduction in induced locomotor activity”. The total distance travelled entry in series [3] (Study 1, 2.5 mg/kg, compared to vehicle-vehicle group) is on record as “significantly different”. In addition, the “observed behaviour of the rats” value in series [3] (rat, in vivo, 2.5 mg/kg) is “less focused on what was going on around them”.

On to `COc1cc2c(cc1OC)[C@H]1C[C@H](O)[C@H](CC(C)C)CN1CC2` [(+)-β-DHTBZ, (2S,3R,11bR)-3-isobutyl-9,10-dimethoxy-1,3,4,6,7,11b-hexahydro-2H-pyrido[2,1,a]isoquinolin-2-ol], for which the “metabolite … (major/minor)” value in series [1] (listed as (+)-β-dihydrotetrabenazine) is on record as “major metabolites; also recorded: main metabolites”. In addition, in series [1] (setting [4]), the Cmax is 103 ng/mL and the AUC is 0.376 µg·h/mL. Further, in series [1] (setting [5]), the Tmax came out at 1.12 h. The AUC(0-t) in series [1] (setting [6]) was determined as 0.599 µg·h/mL. Besides, the AUC(0-t) in series [1] (setting [7]) turned out to be 0.376 µg·h/mL. Besides, in series [1] (setting [8]), the AUC(0-inf) was found to be 0.41 µg·h/mL, the Cmax is 103 ng/mL and the half-life was 5.8 h. In series [1] (setting [9]), the Cmaxss is reported as 144.76 ng/mL, the Cminss is given as 5.45 ng/mL, the Ctss is 5.54 ng/mL and the “Tmaxss Mean” value is reported as 97.11 h. For the same molecule, in series [1] (setting [10]), the “Extrapolated AUC” value is listed as 5.03% and the Kel was determined as 0.13 h⁻¹.

The values above are taken from US10668052B2, “Combinations of isomers of dihydrotetrabenazine” (ADEPTIO PHARMACEUTICALS LIMITED, priority 2017, dated 2020).
